This test concerns the target T1, BST pol (Bacillus stearothermophilus DNA polymerase) (Geobacillus stearothermophilus, UniProt P52026).
T1 construct: gene polA
T1 sequence (P52026 297-876 limits assumed): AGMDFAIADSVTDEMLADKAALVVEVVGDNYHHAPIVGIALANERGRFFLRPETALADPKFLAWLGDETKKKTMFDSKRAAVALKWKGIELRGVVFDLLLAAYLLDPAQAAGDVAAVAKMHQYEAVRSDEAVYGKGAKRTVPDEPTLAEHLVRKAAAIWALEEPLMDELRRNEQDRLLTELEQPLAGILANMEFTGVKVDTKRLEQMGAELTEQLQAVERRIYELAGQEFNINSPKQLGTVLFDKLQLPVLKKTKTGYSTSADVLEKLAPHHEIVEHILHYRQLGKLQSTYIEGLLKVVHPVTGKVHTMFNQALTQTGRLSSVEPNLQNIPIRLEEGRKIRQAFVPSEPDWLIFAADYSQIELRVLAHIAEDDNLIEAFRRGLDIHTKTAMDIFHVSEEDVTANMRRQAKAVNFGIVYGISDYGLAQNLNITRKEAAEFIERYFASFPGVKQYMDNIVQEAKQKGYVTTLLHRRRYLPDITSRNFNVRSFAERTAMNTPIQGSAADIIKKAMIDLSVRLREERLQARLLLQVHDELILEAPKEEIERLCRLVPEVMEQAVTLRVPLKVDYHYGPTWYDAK
As to the kind of experiment: equilibrium 2-aminopurine fluorescence quenching titration. The format is binding. Particulars: read-out: Kd,g.

We go through 1 compound from paper PMC5992921, “The effect of different divalent cations on the kinetics and fidelity of Bacillus stearothermophilus DNA polymerase” (AIMS biophysics, 2018).

`Nc1ccn([C@H]2C[C@H](O)[C@@H](COP(=O)(O)OP(=O)(O)OP(=O)(O)O)O2)c(=O)n1` [dCTP]: the Kd amounted to 1460 ± 130 µM.
